Reference: PubChem BioAssay AID248 (DTP/NCI, 2004)
Toxic doses and inconclusive results are not listed. Cut-off read from the data, not from the text of the source: active = T/C of 150% or more; inactive = T/C below 125%.

Test system: L1210 leukemia ip in BDF1 mice, survival T/C
Experiment: NCI In Vivo Anticancer Drug Screen. Data for tumor model L1210 Leukemia (intraperitoneal) in B6D2F1 (BDF1) mice
Conditions: endpoint: mean survival time, higher = longer survival
Procedure, shortened: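 Tumor was transplanted into mice, which were then dosed with test compound or vehicle alone. Survival was recorded for each group, and the treated figure was expressed relative to the control figure.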

[1] = dose: 100.0 mg/kg/injection, schedule: Q01DX001 (ip), vehicle: carboxymethylcellulose (CMC)
[2] = dose: 200.0 mg/kg/injection, schedule: Q01DX001 (ip), vehicle: carboxymethylcellulose (CMC)
[3] = dose: 400.0 mg/kg/injection, schedule: Q01DX001 (ip), vehicle: carboxymethylcellulose (CMC)
[4] = dose: 100.0 mg/kg/injection, schedule: Q04DX003 (ip), vehicle: Klucel (hydroxypropylcellulose) (HPC)
[5] = dose: 200.0 mg/kg/injection, schedule: Q04DX003 (ip), vehicle: Klucel (hydroxypropylcellulose) (HPC)
[6] = dose: 400.0 mg/kg/injection, schedule: Q04DX003 (ip), vehicle: Klucel (hydroxypropylcellulose) (HPC)
[7] = dose: 100.0 mg/kg/injection, schedule: Q04DX002 (ip), vehicle: Klucel (hydroxypropylcellulose) (HPC)
[8] = dose: 100.0 mg/kg/injection, schedule: Q01DX001 (ip), vehicle: saline
[9] = dose: 200.0 mg/kg/injection, schedule: Q01DX001 (ip), vehicle: saline
[10] = dose: 400.0 mg/kg/injection, schedule: Q01DX001 (ip), vehicle: saline
[11] = dose: 100.0 mg/kg/injection, schedule: Q01DX009 (ip), vehicle: Klucel (hydroxypropylcellulose) (HPC)
[12] = dose: 200.0 mg/kg/injection, schedule: Q01DX009 (ip), vehicle: Klucel (hydroxypropylcellulose) (HPC)
[13] = dose: 400.0 mg/kg/injection, schedule: Q01DX009 (ip), vehicle: Klucel (hydroxypropylcellulose) (HPC)
[14] = dose: 100.0 mg/kg/injection, schedule: Q01DX009 (ip), vehicle: saline with Tween-80
[15] = dose: 100.0 mg/kg/injection, schedule: Q04DX003 (ip), vehicle: saline with Tween-80
[16] = dose: 200.0 mg/kg/injection, schedule: Q01DX009 (ip), vehicle: saline with Tween-80
[17] = dose: 200.0 mg/kg/injection, schedule: Q04DX003 (ip), vehicle: saline with Tween-80
[18] = dose: 400.0 mg/kg/injection, schedule: Q01DX009 (ip), vehicle: saline with Tween-80
[19] = dose: 400.0 mg/kg/injection, schedule: Q04DX003 (ip), vehicle: saline with Tween-80
[20] = dose: 50.0 mg/kg/injection, schedule: Q01DX001 (ip), vehicle: carboxymethylcellulose (CMC)

Measured: T/C

COC1OCC2OC(C)(C)OC2C1OS(=O)(=O)c1ccc([N+](=O)[O-])cc1 (configuration not stated)
inactive: [1] 95 % of control | [2] 95 % of control | [3] 101 % of control

CC(C)(C)CC(C)(C)c1ccc(OCCOc2ccc(NS(=O)(=O)c3ccc([N+](=O)[O-])cc3)cc2)cc1
inactive: [4] 91 % of control | [5] 100 % of control | [6] 91 % of control

COc1ccccc1-n1c(O)c(N=Nc2ccc(Cl)cc2)c(=O)n(-c2ccc(I)cc2)c1=S
inactive: dose: 37.5 mg/kg/injection, schedule: Q01DX001 (ip), vehicle: Klucel (hydroxypropylcellulose) (HPC) 94 % of control | dose: 75.0 mg/kg/injection, schedule: Q01DX001 (ip), vehicle: Klucel (hydroxypropylcellulose) (HPC) 94 % of control | dose: 150.0 mg/kg/injection, schedule: Q01DX001 (ip), vehicle: Klucel (hydroxypropylcellulose) (HPC) 90 % of control

COc1cc2c(cc1OC)N(C(C)=O)Cc1ccc(C=O)n1C2
inactive: dose: 25.0 mg/kg/injection, schedule: Q04DX002 (ip), vehicle: Klucel (hydroxypropylcellulose) (HPC) 105 % of control | dose: 50.0 mg/kg/injection, schedule: Q04DX002 (ip), vehicle: Klucel (hydroxypropylcellulose) (HPC) 97 % of control | [7] 90 % of control

CCCCCCNC1=C(C)C(=O)C(NCCCCCC)=C(C)C1=O
inactive: [8] 104 % of control | [9] 104 % of control | [10] 93 % of control

C[S+](C)c1ccccc1C(C)(C)CC(=O)O
inactive: [8] 103 % of control | [9] 98 % of control | [10] 110 % of control

O=C(c1ccccc1)c1cc2ccccc2n1S(=O)(=O)c1ccccc1
inactive: [7] 95 % of control | dose: 200.0 mg/kg/injection, schedule: Q04DX002 (ip), vehicle: Klucel (hydroxypropylcellulose) (HPC) 98 % of control | dose: 400.0 mg/kg/injection, schedule: Q04DX002 (ip), vehicle: Klucel (hydroxypropylcellulose) (HPC) 95 % of control

COc1ccc2c(c1)C=Cc1ccc(Cl)cc1N2
inactive: [11] 97 % of control | [4] 98 % of control | [12] 94 % of control | [5] 101 % of control | [13] 94 % of control | [6] 104 % of control

Cc1ccc(S(=O)(=O)Nc2ccc3ncsc3c2[N+](=O)[O-])cc1
inactive: [14] 108 % of control | [15] 97 % of control | [16] 93 % of control | [17] 102 % of control | [18] 103 % of control | [19] 102 % of control

COc1cc([N+](=O)[O-])c2nc(C)ccc2c1[N+](=O)[O-]
inactive: [20] 100 % of control | [1] 100 % of control | [2] 100 % of control | [3] 100 % of control

O=[N+]([O-])c1cc(Cl)cc2c1-c1c(Cl)cc(Cl)cc1C2Br (configuration not stated)
inactive: [11] 101 % of control | [4] 98 % of control | [12] 104 % of control | [5] 96 % of control | [13] 103 % of control | [6] 93 % of control

CCCC/C(I)=C\S(=O)(=O)c1ccc(C)cc1
inactive: [8] 113 % of control | [9] 86 % of control | [10] 96 % of control

O=C(NCCCl)NC1CCc2ccccc21 (configuration not stated)
inactive: dose: 20.0 mg/kg/injection, schedule: Q04DX003 (ip), vehicle: Klucel (hydroxypropylcellulose) (HPC) 92 % of control | dose: 40.0 mg/kg/injection, schedule: Q04DX003 (ip), vehicle: Klucel (hydroxypropylcellulose) (HPC) 92 % of control | dose: 80.0 mg/kg/injection, schedule: Q04DX003 (ip), vehicle: Klucel (hydroxypropylcellulose) (HPC) 91 % of control | [4] 95 % of control | [5] 106 % of control

N#CCCN(CCC#N)/N=N\c1nc[nH]c1C(N)=O
inactive: dose: 50.0 mg/kg/injection, schedule: Q01DX001 (ip), vehicle: water 104 % of control | dose: 50.0 mg/kg/injection, schedule: Q04DX003 (ip), vehicle: water 98 % of control | dose: 100.0 mg/kg/injection, schedule: Q01DX001 (ip), vehicle: other 104 % of control | dose: 100.0 mg/kg/injection, schedule: Q01DX001 (ip), vehicle: water 97 % of control | dose: 100.0 mg/kg/injection, schedule: Q01DX009 (ip), vehicle: other 101 % of control | dose: 100.0 mg/kg/injection, schedule: Q04DX003 (ip), vehicle: other 104 % of control | dose: 100.0 mg/kg/injection, schedule: Q04DX003 (ip), vehicle: water 100 % of control | dose: 200.0 mg/kg/injection, schedule: Q01DX001 (ip), vehicle: other 102 % of control | dose: 200.0 mg/kg/injection, schedule: Q01DX001 (ip), vehicle: water 96 % of control | dose: 200.0 mg/kg/injection, schedule: Q01DX009 (ip), vehicle: other 95 % of control | dose: 200.0 mg/kg/injection, schedule: Q04DX003 (ip), vehicle: other 105 % of control | dose: 200.0 mg/kg/injection, schedule: Q04DX003 (ip), vehicle: water 102 % of control | dose: 400.0 mg/kg/injection, schedule: Q01DX001 (ip), vehicle: other 102 % of control | dose: 400.0 mg/kg/injection, schedule: Q01DX001 (ip), vehicle: water 101 % of control | dose: 400.0 mg/kg/injection, schedule: Q01DX009 (ip), vehicle: other 93 % of control | dose: 400.0 mg/kg/injection, schedule: Q04DX003 (ip), vehicle: other 98 % of control | dose: 400.0 mg/kg/injection, schedule: Q04DX003 (ip), vehicle: water 97 % of control

Cc1cc(C(=O)c2ccccc2)ccc1O
inactive: [20] 100 % of control | [1] 96 % of control | [2] 91 % of control | [3] 96 % of control

Cc1ccc(NC(=O)Nc2cccc(Cl)c2C)cc1NC(=O)Nc1cccc(Cl)c1C
inactive: [14] 87 % of control | [15] 90 % of control | [16] 87 % of control | [17] 91 % of control | [18] 86 % of control | [19] 91 % of control

c1nc2c(o1)CCCC2
inactive: dose: 50.0 mg/kg/injection, schedule: Q04DX002 (ip), vehicle: carboxymethylcellulose (CMC) 98 % of control | dose: 50.0 mg/kg/injection, schedule: Q04DX002 (ip), vehicle: other 97 % of control | dose: 100.0 mg/kg/injection, schedule: Q04DX002 (ip), vehicle: carboxymethylcellulose (CMC) 98 % of control | dose: 100.0 mg/kg/injection, schedule: Q04DX002 (ip), vehicle: other 100 % of control | dose: 200.0 mg/kg/injection, schedule: Q04DX002 (ip), vehicle: carboxymethylcellulose (CMC) 95 % of control | dose: 200.0 mg/kg/injection, schedule: Q04DX002 (ip), vehicle: other 93 % of control

Cc1cc(/C=C\c2ccccc2Cl)nc2cc(Cl)ccc12
inactive: dose: 100.0 mg/kg/injection, schedule: Q04DX003 (ip), vehicle: saline 102 % of control | dose: 200.0 mg/kg/injection, schedule: Q04DX003 (ip), vehicle: saline 98 % of control | dose: 400.0 mg/kg/injection, schedule: Q04DX003 (ip), vehicle: saline 102 % of control
